Measured values taken from US10736934B2, “Proteasome modulation for treatment of corneal disorders” (The Lundquist Institute, priority 2015, dated 2020).

What was measured:
Keratin 4 (K4) = assay: Western blot of K4 in PS-341-treated oral mucosa epithelial cells; type: cell-based, rabbit; settings: OMECS
Procedure: (§1) After two weeks of cell culture and when the cells grew to form a multilayered tissue like, proteasome inhibitor (PS-341, (Bortezomib/Velcade®, Millennium Pharmaceutical, a highly specific proteasome inhibitor) was added in cell culture media for 24 h and for 72 h at 2.5, 5, 10, 20, and 50 nM, to, respectively achieve proteasome inhibition or proteasome activation.

[1] = test system: poly-ubiquitinated proteins; assay: Western blot of poly-ubiquitinated proteins in PS-341-treated oral mucosa epithelial cells; type: cell-based, rabbit; settings: 2.5 nM PS-341, 72 h
Procedure: as §1

Keratin 13 (K13) = assay: Western blot of K13 in PS-341-treated oral mucosa epithelial cells; type: cell-based, rabbit; settings: OMECS
Procedure: as §1

IκB / NFκB = IκB / NFκB activation in PS-341-treated oral mucosa epithelial cells
[2] = test system: 26S constitutive proteasome (CPR); assay: Proteasome chymotrypsin-like activity in cultured oral mucosa epithelial cells treated with PS-341; type: cell-based, rabbit
Procedure: as §1
One μg of total protein from sample homogenates was used. The reaction mixture contained 50 mM Tris-HCl pH=8, 1 mM DTT, and 40 μM Suc-Leu-Leu-Val-Tyr-AMC (Sigma Aldrich) substrate for chymotrypsin-like activity or 40 μM of Boc-Leu-Ser-Thr-Arg-AMC for trypsin-like activity or 100 uM of Ac-Gly-Pro-Leu-Asp-AMC (Sigma Aldrich) for Caspase-like activity. 5 mM ATP was added to the reaction mixture to distinguish 26S proteasome activity from 20S proteasome activity. The mixture was then incubated for 30 min at 37° C., and then stopped by adding […] monochloroacetate and 30 mM sodium acetate pH=4.3. Fluorescence was determined by measuring the release of AMC (λ, excitation: 370 nm, λ, emission: 410 nm), using a Perkin Elmer LS 30 spectrofluorometer.

[3] = test system: oral mucosa epithelial cells (OMECS); assay: Toxicity of low-dose PS-341 in oral mucosa epithelial cells; type: cell-based, rabbit; settings: 2.5 nM PS-341 (very low dose), 72 h
Procedure: as §1

[4] = high doses 10 and 50 nM, 24 hours

Q: Which K4 levels (Keratin 4 (K4); 2.5 nM PS-341, 72 hours) does the source give for `CC(C)C[C@H](NC(=O)[C@H](Cc1ccccc1)NC(=O)c1cnccn1)B(O)O` [PS-341, Bortezomib] here?
A: The K4 levels was “decreased”.

Q: And the K4 level (Keratin 4 (K4); [4])?
A: The K4 level was “modified and significantly accumulated”.

Q: What about the poly-ubiquitinated protein accumulation [1] of the same compound?
A: Its poly-ubiquitinated protein accumulation is “no significant poly-ubiquitinated protein accumulation”.

Q: And the K13 levels (Keratin 13 (K13); 2.5 nM PS-341, 72 hours)?
A: The K13 levels was “decreased”.

Q: And the K13 level (Keratin 13 (K13); [4])?
A: Its K13 level is “modified and significantly accumulated”.

Q: And the “levels of expression of Inhibitor Kappa B” value (IκB / NFκB; 2.5 nM PS-341, 72 hours after treatment, OMECS)?
A: Its value is “decreased”.

Q: And the NFκB activation (IκB / NFκB; 2.5 nM PS-341, OMECS)?
A: Its NFκB activation is “blocked NFκB activation”.

Q: And the IκB (IκB / NFκB; 2.5 nM PS-341, first 24 hours, OMECS)?
A: Its IκB is “stabilizing IκB”.

Q: And the “CPR chymotrypsin-like activity decrease” value ([2]; 2.5 nM PS-341, 24 h, oral mucosa epithelial cells)?
A: The value was 9%.

Q: What about the “increase in proteasome chymotrypsin-like activity versus untreated cells” value ([2]; 2.5 nM PS-341, 72 hours, oral mucosa epithelial cells) of the same compound?
A: The value was 61%.

Q: And the “CPR chymotrypsin-like activity decrease” value ([2]; 5 nM PS-341, 24 h, oral mucosa epithelial cells)?
A: The value was −41%.

Q: And the “proteasome activities at 72 hours” value ([2]; 5 nM PS-341, 72 hours, oral mucosa epithelial cells)?
A: Its value is “increased proteasome activities”.

Q: What about the “CPR chymotrypsin-like activity decrease” value ([2]; 10 nM PS-341, 24 h, oral mucosa epithelial cells) of the same compound?
A: The value was −59%.

Q: What about the “proteasome activities at 72 hours” value ([2]; 10 nM PS-341, 72 hours, oral mucosa epithelial cells) of the same compound?
A: Its value is “increased proteasome activities”.

Q: And the “CPR chymotrypsin-like activity decrease” value ([2]; 20 nM PS-341, 24 h, oral mucosa epithelial cells)?
A: The value was −84%.

Q: What about the “CPR chymotrypsin-like activity decrease” value ([2]; 50 nM PS-341, 24 h, oral mucosa epithelial cells) of the same compound?
A: The value was −86%.

Q: And the Chymotrypsine-like proteasome activity ([2]; high doses 10 and 50 nM, 24 hours, OMECS)?
A: The Chymotrypsine-like proteasome activity was “decreased”.

Q: What about the toxic effects [3] of the same compound?
A: Its toxic effects is “does not produce toxic effects”.
